Measurements published in patent US20100010002A1, “ANTICANCER USE OF CAFFEIC ACID AND ITS DERIVATIVES” (Piramal Life Sciences Limited, priority 2006, published 2010).
Read-outs that look alike come from different tables or passages of the source.

Assays:
[1] = biological target: T1, Ba/F3 Bcr-Abl/Y253F (Homo sapiens, UniProt P00519, Y253F, cells depend on it); assay: CCK-8 assay, Ba/F3 Bcr-Abl/Y253F; assay type: cell-based
T1 construct: fused on or other part: P11274 (Breakpoint cluster region protein)

[2] = biological target: T2, Ba/F3 Bcr-Abl/H396R (Homo sapiens, UniProt P00519, H396R, cells depend on it); assay: CCK-8 assay, Ba/F3 Bcr-Abl/H396R; assay type: cell-based
T2 construct: fused on or other part: P11274 (Breakpoint cluster region protein)

[3] = biological target: T3, Ba/F3 Bcr-Abl/M244V (Homo sapiens, UniProt P00519, M244V, cells depend on it); assay: CCK-8 assay, Ba/F3 Bcr-Abl/M244V; assay type: cell-based
T3 construct: fused on or other part: P11274 (Breakpoint cluster region protein)

[4] = tested on: K562; assay: CCK-8 cell proliferation and cytotoxicity assay, K562; assay type: cell-based, Human; conditions: read-out: Inhibitory concentration (IC50), K562
[5] = biological target: T4, Ba/F3 Bcr-Abl/E255K (Homo sapiens, UniProt P00519, E255K, cells depend on it); assay: CCK-8 assay, Ba/F3 Bcr-Abl/E255K; assay type: cell-based
T4 construct: fused on or other part: P11274 (Breakpoint cluster region protein)

[6] = biological target: T5, Ba/F3 Bcr-Abl/F359V (Homo sapiens, UniProt P00519, F359V, cells depend on it); assay: CCK-8 assay, Ba/F3 Bcr-Abl/F359V; assay type: cell-based
T5 construct: fused on or other part: P11274 (Breakpoint cluster region protein)

[7] = biological target: T6, Ba/F3 Bcr-Abl/M351T (Homo sapiens, UniProt P00519, M351T, cells depend on it); assay: CCK-8 assay, Ba/F3 Bcr-Abl/M351T; assay type: cell-based
T6 construct: fused on or other part: P11274 (Breakpoint cluster region protein)

[8] = biological target: T7, Ba/F3 Bcr-Abl/Q252H (Homo sapiens, UniProt P00519, Q252H, cells depend on it); assay: CCK-8 assay, Ba/F3 Bcr-Abl/Q252H; assay type: cell-based
T7 construct: fused on or other part: P11274 (Breakpoint cluster region protein)

[9] = biological target: Ba/F3 Bcr-Abl/T315I (Homo sapiens, UniProt P00519, T315I, cells depend on it)
Text: (§1) The cell lines described in Table 3 were used to test the antiproliferative activity of test compounds.
(§2) Cell Counting Kit-8 (CCK-8) allows very convenient assay by utilizing Dojindo's highly water-soluble tetrazolium salt. CCK-8, being nonradioactive, allows sensitive colorimetric assay for the determination of number of viable cells in cell proliferation and cytotoxicity assays. The amount of the formazan dye generated by dehydrogenases in cells is directly proportional to the number of living cells. Thus, the CCK-8 assay can also be substituted for the H^3-Thymidine incorporation assay.
(§3) Plates were further incubated at 37° C., 5% CO2 incubator for 72 h. 10 μl of the CCK-8 solution was added to each well and plate was incubated for 1-4 h in the incubator. Measured the absorbance at 450 nm using a microplate reader.
(§4) A. The percent inhibition and IC50 were calculated in comparison with control values.

[10] = biological target: T8, Ba/F3 Bcr-Abl/H396P (Homo sapiens, UniProt P00519, H396P, cells depend on it); assay: CCK-8 assay, Ba/F3 Bcr-Abl/H396P; assay type: cell-based
T8 construct: fused on or other part: P11274 (Breakpoint cluster region protein)

[11] = biological target: T9, Ba/F3 Bcr-Abl/F317L (Homo sapiens, UniProt P00519, F317L, cells depend on it); assay: CCK-8 assay, Ba/F3 Bcr-Abl/F317L; assay type: cell-based
T9 construct: fused on or other part: P11274 (Breakpoint cluster region protein)

[12] = biological target: T10, Ba/F3 Bcr-Abl/Y253H (Homo sapiens, UniProt P00519, Y253H, cells depend on it); assay: CCK-8 assay, Ba/F3 Bcr-Abl/Y253H; assay type: cell-based
T10 construct: fused on or other part: P11274 (Breakpoint cluster region protein)

[13] = biological target: T11, Ba/F3 Bcr-Abl/E255V (Homo sapiens, UniProt P00519, E255V, cells depend on it); assay: CCK-8 assay, Ba/F3 Bcr-Abl/E255V; assay type: cell-based
T11 construct: fused on or other part: P11274 (Breakpoint cluster region protein)

[14] = biological target: T12, Ba/F3 Bcr-Abl/WT (Homo sapiens, UniProt P00519); assay: CCK-8 assay, Ba/F3 Bcr-Abl/WT; assay type: cell-based; conditions: CCK-8, 72 h, imatinib mesylate sensitive; read-out: Inhibitory concentration (IC50), Ba/F3 Bcr-Abl/WT
T12 construct: fused on or other part: P11274 (Breakpoint cluster region protein)
Text: as §1, §2, §3, §4

[15] = mouse, ba/f3 bcr-abl/t315i, 72 h
[16] = read-out: Inhibitory concentration (IC50), Ba/F3 Bcr-Abl/T315I, CCK-8, 72 h, imatinib mesylate resistant, Table 4
[17] = CCK-8, 72 h, imatinib mesylate sensitive K562

SMILES: O=C(O)/C=C/c1ccc(O)c(O)c1 [Compound 1, 3-(3,4-Dihydroxy-phenyl)-acrylic acid [caffeic acid]]
- GI50 ([1]; mouse, 72 h): > 100 µM
- GI50 ([2]; mouse, 72 h): > 100 µM
- GI50 ([3]; mouse, 72 h): > 100 µM
- IC50 ([4]; Homo sapiens, K562, 72 h): > 100 µM
- GI50 ([5]; mouse, 72 h): > 100 µM
- GI50 ([6]; mouse, 72 h): > 100 µM
- GI50 ([7]; mouse, 72 h): > 100 µM
- GI50 ([8]; mouse, 72 h): > 100 µM
- GI50 [9, 15]: > 100 µM
- GI50 [9, 16]: > 100 µM
- GI50 ([10]; mouse, 72 h): > 100 µM
- GI50 ([11]; mouse, 72 h): > 100 µM
- GI50 ([12]; mouse, 72 h): > 100 µM
- GI50 ([13]; mouse, 72 h): > 100 µM
- GI50 [14]: > 100 µM

SMILES: CCCOC(=O)C=Cc1ccc(O)c(O)c1 [Compound 5, 3-(3,4-Dihydroxy-phenyl)-acrylic acid n-propyl ester]
- GI50 ([1]; mouse, 72 h): 1.7 µM
- GI50 ([2]; mouse, 72 h): 1.1 µM
- GI50 ([3]; mouse, 72 h): 3 µM
- IC50 ([4]; Homo sapiens, K562, 72 h): 13.5 ± 2.1 µM
- GI50 ([5]; mouse, 72 h): 2.9 µM
- GI50 ([6]; mouse, 72 h): 2.5 µM
- GI50 ([7]; mouse, 72 h): 2.2 µM
- GI50 ([8]; mouse, 72 h): 1.7 µM
- GI50 [9, 15]: 0.6 µM
- GI50 [9, 16]: 0.7 ± 0.1 µM
- GI50 ([10]; mouse, 72 h): 5.6 µM
- GI50 ([11]; mouse, 72 h): 1.6 µM
- GI50 ([12]; mouse, 72 h): 3.3 µM
- GI50 ([13]; mouse, 72 h): 3.4 µM
- GI50 [14]: 2.4 ± 0.8 µM

SMILES: O=C(C=Cc1ccc(O)c(O)c1)N1CCC(Cc2ccccc2)CC1 [Compound 19, 1-(4-Benzyl-piperidin-1-yl)-3-(3,4-dihydroxy-phenyl)-propenone]
- GI50 [1]: 1 µM
- GI50 [2]: 1.4 µM
- GI50 [3]: 1 µM
- IC50 [4, 17]: 5.7 µM
- GI50 [5]: 1.5 µM
- GI50 [6]: 2.4 µM
- GI50 [7]: 2.1 µM
- GI50 [8]: 1.1 µM
- GI50 ([9]; ba/f3 bcr-abl/t315i): 2.1 µM
- GI50 [9, 16]: 2.7 ± 0.5 µM
- GI50 [10]: 2.8 µM
- GI50 [11]: 1.1 µM
- GI50 [12]: 1 µM
- GI50 [13]: 0.8 µM
- GI50 [14]: 4.2 ± 1.3 µM

SMILES: CCN1CCN(C(=O)C=Cc2ccc(O)c(O)c2)CC1 [Compound 9, 3-(3,4-Dihydroxy-phenyl)-1-(4-ethyl-piperazin-1-yl)-propenone]
- IC50 [4, 17]: 59.5 µM
- GI50 [9, 16]: 43.1 ± 27.9 µM
- GI50 [14]: 40.6 ± 16.4 µM

SMILES: O=C(C=Cc1ccc(O)c(O)c1)N1CCN(Cc2ccccc2)CC1 [Compound 10, 1-(4-Benzyl-piperazin-1-yl) 3-(3,4-dihydroxy-phenyl)-propenone]
- GI50 [1]: 1.1 µM
- GI50 [2]: 1 µM
- GI50 [3]: 1.3 µM
- IC50 [4, 17]: 18 µM
- GI50 [5]: 2.4 µM
- GI50 [6]: 2.6 µM
- GI50 [7]: 2.2 µM
- GI50 [8]: 1.5 µM
- GI50 ([9]; ba/f3 bcr-abl/t315i): 3.1 µM
- GI50 [9, 16]: 2.5 ± 1.5 µM
- GI50 [10]: 3.7 µM
- GI50 [11]: 1.2 µM
- GI50 [12]: 2.5 µM
- GI50 [13]: 2.1 µM
- GI50 [14]: 2.8 ± 0.4 µM

SMILES: CC(C)NC(=O)/C=C/c1ccc(O)c(O)c1 [Compound 18, (E)-3-(3,4-dihydroxy-phenyl)-N-isopropyl-acrylamide]
- IC50 ([4]; Homo sapiens, K562, 72 h): 32.1 µM
- GI50 [9, 16]: 9.5 ± 4.1 µM
- GI50 [14]: 19.4 ± 8.8 µM

SMILES: CCOC(=O)C=Cc1ccc(O)c(O)c1 [Compound 3, 3-(3,4-Dihydroxy-phenyl)-acrylic acid ethyl ester]
- GI50 ([1]; mouse, 72 h): 6.4 µM
- GI50 ([2]; mouse, 72 h): 8.6 µM
- GI50 ([3]; mouse, 72 h): 15.2 µM
- IC50 ([4]; Homo sapiens, K562, 72 h): 11.8 ± 8.8 µM
- GI50 ([5]; mouse, 72 h): 6.7 µM
- GI50 ([6]; mouse, 72 h): 13.4 µM
- GI50 ([7]; mouse, 72 h): 8.7 µM
- GI50 ([8]; mouse, 72 h): 8.4 µM
- GI50 [9, 15]: 1.1 µM
- GI50 [9, 16]: 2.3 ± 0.9 µM
- GI50 ([10]; mouse, 72 h): 16.6 µM
- GI50 ([11]; mouse, 72 h): 12.3 µM
- GI50 ([12]; mouse, 72 h): 13.2 µM
- GI50 ([13]; mouse, 72 h): 10.2 µM
- GI50 [14]: 3.3 ± 0.9 µM

SMILES: CN1CCC(N2CCN(C(=O)/C=C/c3ccc(O)c(O)c3)CC2)CC1 [Compound 12, (E)-3-(3,4-dihydroxy-phenyl)-1-[4-(1-methyl-piperidin-4-yl)piperazin-1-yl]-propenone]
- IC50 [4, 17]: > 30 µM
- GI50 [9, 16]: > 30 µM
- GI50 [14]: > 30 µM

SMILES: O=C(/C=C/c1ccc(O)c(O)c1)N1CCN(c2ccccc2)CC1 [Compound 13, (E)-3-(3,4-dihydroxy-phenyl)-1-(4-phenylpiperazin-1-yl)-propenone]
- IC50 [4, 17]: 33.5 µM
- GI50 [9, 16]: 26.6 ± 6.5 µM
- GI50 [14]: 27 ± 8.5 µM

SMILES: CC(C)OC(=O)C=Cc1ccc(O)c(O)c1 [Compound 6, 3-(3,4-Dihydroxy-phenyl)-acrylic acid i-propyl ester]
- GI50 ([1]; mouse, 72 h): 5.2 µM
- GI50 ([2]; mouse, 72 h): 7 µM
- GI50 ([3]; mouse, 72 h): 9.8 µM
- IC50 ([4]; Homo sapiens, K562, 72 h): 16.5 ± 2.1 µM
- GI50 ([5]; mouse, 72 h): 5.1 µM
- GI50 ([6]; mouse, 72 h): 14.6 µM
- GI50 ([7]; mouse, 72 h): 5.1 µM
- GI50 ([8]; mouse, 72 h): 5.9 µM
- GI50 [9, 15]: 2 µM
- GI50 [9, 16]: 1.7 ± 1.1 µM
- GI50 ([10]; mouse, 72 h): 10.8 µM
- GI50 ([11]; mouse, 72 h): 11.3 µM
- GI50 ([12]; mouse, 72 h): 13.3 µM
- GI50 ([13]; mouse, 72 h): 9.9 µM
- GI50 [14]: 2.3 ± 1.1 µM
